Values of other authors in US20240325295A1, “AQUEOUS BUMETANIDE-CONTAINING LIQUID” (DriPel B.V., priority 2021, published 2024).
In brackets after ≈: the same amount, converted by molar mass.

Legend:
[1] = at 25° C.
[2] = at 4° C.

water solubility [1]: 0.026 mg/mL (≈ 0.0713 mM)
solubility in glycofurol ([2]; glycofurol): 167 mg/mL (≈ 458 mM)
solubility in polyethylene glycol 200 ([2]; polyethylene glycol 200): 143 mg/mL (≈ 392 mM)
Structure (SMILES): CCCCNc1cc(C(=O)O)cc(S(N)(=O)=O)c1Oc1ccccc1 [Bumetanide]
